Assay results: the supplement of paper PMC9013687

Experiments:
Danio rerio embryo [1] = system: Danio rerio embryo
Protocol: (§1)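 Zebrafish embryos (UFZ-OBI strain) were exposed from 2 hpf for 48 h (2 dpf) or 96 h (4 dpf) at 28 °C; spontaneous tail coiling was scored at 25 hpf. Morphological features from automated image analysis (FishInspector), heart rate and locomotor response were fitted with drc models. Quantal endpoints were dichotomised at 2.5 SD from controls and fitted with a log-logistic model; heart rate, pigmentation and STC were normalised to the replicate control mean. Betamethasone was tested as betamethasone dipropionate, diflorasone as diflorasone diacetate.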

Danio rerio embryo [2] = details: exposure time: 4 dpf
Protocol: as §1

Danio rerio embryo [3] = assay: EC50 Curvature_Increase
Protocol: as §1

Danio rerio embryo [4] = assay: EC50 Body length_Decrease
Protocol: as §1

Danio rerio embryo [5] = assay: EC50 Bladder size_Decrease; details: exposure time: 4 dpf
Protocol: as §1

Danio rerio embryo [6] = assay: EC50 Pericard size_Increase; details: exposure time: 4 dpf
Protocol: as §1

Danio rerio embryo [7] = assay: EC50 Yolk sac size_Increase; details: exposure time: 4 dpf
Protocol: as §1

Danio rerio embryo [8] = assay: EC50 Eye-jaw distance_Decrease; details: exposure time: 4 dpf
Protocol: as §1

Danio rerio embryo [9] = assay: EC50 Otolith-eye distance_Decrease; details: exposure time: 4 dpf
Protocol: as §1

Danio rerio embryo [10] = assay: EC10 LMR dark; higher = less potent; details: exposure time: 4 dpf
Protocol: as §1

Danio rerio embryo [11] = assay: EC20 LMR dark; higher = less potent; details: exposure time: 4 dpf
Protocol: as §1

Danio rerio embryo [12] = assay: EC20 Any effect; higher = less potent
Protocol: as §1

Danio rerio embryo [13] = assay: EC10 Any effect; higher = less potent
Protocol: as §1

Danio rerio embryo [14] = assay: EC20 Eye size_Decrease; higher = less potent
Protocol: as §1

Danio rerio embryo [15] = assay: EC10 Curvature_Increase; higher = less potent
Protocol: as §1

Danio rerio embryo [16] = assay: EC20 Curvature_Increase; higher = less potent
Protocol: as §1

Danio rerio embryo [17] = assay: EC10 Head size_Decrease; higher = less potent
Protocol: as §1

Danio rerio embryo [18] = assay: EC20 Body length_Decrease; higher = less potent
Protocol: as §1

Danio rerio embryo [19] = assay: EC10 Body length_Decrease; higher = less potent
Protocol: as §1

Danio rerio embryo [20] = assay: EC10 Bladder size_Decrease; higher = less potent; details: exposure time: 4 dpf
Protocol: as §1

Danio rerio embryo [21] = assay: EC20 Bladder size_Decrease; higher = less potent; details: exposure time: 4 dpf
Protocol: as §1

Danio rerio embryo [22] = assay: EC20 Yolk sac size_Increase; higher = less potent; details: exposure time: 4 dpf
Protocol: as §1

Danio rerio embryo [23] = assay: EC20 Pericard size_Increase; higher = less potent; details: exposure time: 4 dpf
Protocol: as §1

Danio rerio embryo [24] = assay: EC10 Yolk sac size_Increase; higher = less potent; details: exposure time: 4 dpf
Protocol: as §1

Danio rerio embryo [25] = assay: EC10 Pericard size_Increase; higher = less potent; details: exposure time: 4 dpf
Protocol: as §1

Danio rerio embryo [26] = assay: EC20 Eye-jaw distance_Decrease; higher = less potent; details: exposure time: 4 dpf
Protocol: as §1

Danio rerio embryo [27] = assay: EC10 Eye-jaw distance_Decrease; higher = less potent; details: exposure time: 4 dpf
Protocol: as §1

Danio rerio embryo [28] = assay: EC20 Otolith-eye distance_Decrease; higher = less potent; details: exposure time: 4 dpf
Protocol: as §1

Danio rerio embryo [29] = assay: EC10 Otolith-eye distance_Decrease; higher = less potent; details: exposure time: 4 dpf
Protocol: as §1

Danio rerio embryo [30] = assay: spontaneous tail coiling frequency (coils/min/embryo); higher = more spontaneous movement; details: 25 hpf
Protocol: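 Spontaneous tail coilings of zebrafish embryos exposed from 2 hpf were recorded at 24-25 hpf in 1-min videos and detected by a KNIME workflow from grey-value variance. Betamethasone was tested as the dipropionate, diflorasone as the diacetate.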

CCOC(=O)N1CCC(=C2c3ccc(Cl)cc3CCc3cccnc32)CC1 [Loratadine]
Details	EC10 Any effect [µM]	EC10 Body length Decrease [µM]	EC10 Curvature Increase [µM]	EC10 Head size Decrease [µM]	EC20 Any effect [µM]	EC20 Body length Decrease [µM]	EC20 Curvature Increase [µM]	EC20 Eye size Decrease [µM]	EC50 Any effect [µM]	EC50 Body length Decrease [µM]	EC50 Curvature Increase [µM]	EC50 STC decrease [µM]	spontaneous tail coiling frequency
Danio rerio embryo [1], exposure time: 2 dpf	–	–	–	–	–	–	–	–	6.4	–	–	–	–
Danio rerio embryo [1], exposure time: 4 dpf	–	–	–	–	–	–	–	–	0.438	–	–	–	–
Danio rerio embryo [1], exposure time: 25 h	–	–	–	–	–	–	–	–	–	–	–	6.63	–
Danio rerio embryo [3], exposure time: 2 dpf	–	–	–	–	–	–	–	–	–	–	6.62	–	–
Danio rerio embryo [4], exposure time: 2 dpf	–	–	–	–	–	–	–	–	–	7.83	–	–	–
Danio rerio embryo [4], exposure time: 4 dpf	–	–	–	–	–	–	–	–	–	0.442	–	–	–
Danio rerio embryo [12], exposure time: 2 dpf	–	–	–	–	5.01	–	–	–	–	–	–	–	–
Danio rerio embryo [12], exposure time: 4 dpf	–	–	–	–	0.398	–	–	–	–	–	–	–	–
Danio rerio embryo [13], exposure time: 2 dpf	4.34	–	–	–	–	–	–	–	–	–	–	–	–
Danio rerio embryo [13], exposure time: 4 dpf	0.376	–	–	–	–	–	–	–	–	–	–	–	–
Danio rerio embryo [14], exposure time: 2 dpf	–	–	–	–	–	–	–	6.71	–	–	–	–	–
Danio rerio embryo [14], exposure time: 4 dpf	–	–	–	–	–	–	–	5.96	–	–	–	–	–
Danio rerio embryo [15], exposure time: 2 dpf	–	–	3.56	–	–	–	–	–	–	–	–	–	–
Danio rerio embryo [16], exposure time: 2 dpf	–	–	–	–	–	–	4.48	–	–	–	–	–	–
Danio rerio embryo [17], exposure time: 2 dpf	–	–	–	2.55	–	–	–	–	–	–	–	–	–
Danio rerio embryo [17], exposure time: 4 dpf	–	–	–	6.85	–	–	–	–	–	–	–	–	–
Danio rerio embryo [18], exposure time: 2 dpf	–	–	–	–	–	6	–	–	–	–	–	–	–
Danio rerio embryo [18], exposure time: 4 dpf	–	–	–	–	–	0.404	–	–	–	–	–	–	–
Danio rerio embryo [19], exposure time: 2 dpf	–	5.13	–	–	–	–	–	–	–	–	–	–	–
Danio rerio embryo [19], exposure time: 4 dpf	–	0.383	–	–	–	–	–	–	–	–	–	–	–
Danio rerio embryo [30], 0.155 µM	–	–	–	–	–	–	–	–	–	–	–	–	2.97
Danio rerio embryo [30], 0.31 µM	–	–	–	–	–	–	–	–	–	–	–	–	1.28
Danio rerio embryo [30], 0.61 µM	–	–	–	–	–	–	–	–	–	–	–	–	1.66
Danio rerio embryo [30], 1.22 µM	–	–	–	–	–	–	–	–	–	–	–	–	1.82
Danio rerio embryo [30], 2.45 µM	–	–	–	–	–	–	–	–	–	–	–	–	2.58
Danio rerio embryo [30], 4.9 µM	–	–	–	–	–	–	–	–	–	–	–	–	1.79
Danio rerio embryo [30], 9.79 µM	–	–	–	–	–	–	–	–	–	–	–	–	0.505

Details	EC10 Bladder size Decrease [µM]	EC10 Eye-jaw distance Decrease [µM]	EC10 LMR dark [µM]	EC10 Otolith-eye distance Decrease [µM]	EC10 Pericard size Increase [µM]	EC10 Yolk sac size Increase [µM]	EC20 Bladder size Decrease [µM]	EC20 Eye-jaw distance Decrease [µM]	EC20 LMR dark [µM]	EC20 Otolith-eye distance Decrease [µM]	EC20 Pericard size Increase [µM]	EC20 Yolk sac size Increase [µM]	EC50 Bladder size Decrease [µM]	EC50 Eye-jaw distance Decrease [µM]	EC50 LMR dark [µM]	EC50 Otolith-eye distance Decrease [µM]	EC50 Pericard size Increase [µM]	EC50 Yolk sac size Increase [µM]
Danio rerio embryo [2]	–	–	–	–	–	–	–	–	–	–	–	–	–	–	0.399	–	–	–
Danio rerio embryo [5]	–	–	–	–	–	–	–	–	–	–	–	–	0.282	–	–	–	–	–
Danio rerio embryo [6]	–	–	–	–	–	–	–	–	–	–	–	–	–	–	–	–	10.2	–
Danio rerio embryo [7]	–	–	–	–	–	–	–	–	–	–	–	–	–	–	–	–	–	11.6
Danio rerio embryo [8]	–	–	–	–	–	–	–	–	–	–	–	–	–	6.86	–	–	–	–
Danio rerio embryo [9]	–	–	–	–	–	–	–	–	–	–	–	–	–	–	–	5.49	–	–
Danio rerio embryo [10]	–	–	0.279	–	–	–	–	–	–	–	–	–	–	–	–	–	–	–
Danio rerio embryo [11]	–	–	–	–	–	–	–	–	0.318	–	–	–	–	–	–	–	–	–
Danio rerio embryo [20]	0.165	–	–	–	–	–	–	–	–	–	–	–	–	–	–	–	–	–
Danio rerio embryo [21]	–	–	–	–	–	–	0.201	–	–	–	–	–	–	–	–	–	–	–
Danio rerio embryo [22]	–	–	–	–	–	–	–	–	–	–	–	6.74	–	–	–	–	–	–
Danio rerio embryo [23]	–	–	–	–	–	–	–	–	–	–	4.72	–	–	–	–	–	–	–
Danio rerio embryo [24]	–	–	–	–	–	4.91	–	–	–	–	–	–	–	–	–	–	–	–
Danio rerio embryo [25]	–	–	–	–	3.01	–	–	–	–	–	–	–	–	–	–	–	–	–
Danio rerio embryo [26]	–	–	–	–	–	–	–	5.67	–	–	–	–	–	–	–	–	–	–
Danio rerio embryo [27]	–	5.07	–	–	–	–	–	–	–	–	–	–	–	–	–	–	–	–
Danio rerio embryo [28]	–	–	–	–	–	–	–	–	–	4.62	–	–	–	–	–	–	–	–
Danio rerio embryo [29]	–	–	–	4.17	–	–	–	–	–	–	–	–	–	–	–	–	–	–

CN(Cc1cnc2nc(N)nc(N)c2n1)c1ccc(C(=O)N[C@@H](CCC(=O)O)C(=O)O)cc1 [Methotrexate]
Details	EC10 Any effect [µM]	EC10 Body length Decrease [µM]	EC10 Curvature Increase [µM]	EC20 Any effect [µM]	EC20 Body length Decrease [µM]	EC20 Curvature Increase [µM]	EC20 Eye size Decrease [µM]	EC50 Any effect [µM]	EC50 Body length Decrease [µM]	EC50 Curvature Increase [µM]	EC50 LMR ligth decrease [µM]	spontaneous tail coiling frequency
Danio rerio embryo [1], exposure time: 2 dpf	–	–	–	–	–	–	–	207	–	–	–	–
Danio rerio embryo [1], exposure time: 4 dpf	–	–	–	–	–	–	–	116	–	–	127	–
Danio rerio embryo [3], exposure time: 2 dpf	–	–	–	–	–	–	–	–	–	250	–	–
Danio rerio embryo [3], exposure time: 4 dpf	–	–	–	–	–	–	–	–	–	219	–	–
Danio rerio embryo [4], exposure time: 2 dpf	–	–	–	–	–	–	–	–	241	–	–	–
Danio rerio embryo [4], exposure time: 4 dpf	–	–	–	–	–	–	–	–	214	–	–	–
Danio rerio embryo [12], exposure time: 2 dpf	–	–	–	126	–	–	–	–	–	–	–	–
Danio rerio embryo [12], exposure time: 4 dpf	–	–	–	55.2	–	–	–	–	–	–	–	–
Danio rerio embryo [13], exposure time: 2 dpf	93.9	–	–	–	–	–	–	–	–	–	–	–
Danio rerio embryo [13], exposure time: 4 dpf	35.7	–	–	–	–	–	–	–	–	–	–	–
Danio rerio embryo [14], exposure time: 4 dpf	–	–	–	–	–	–	116	–	–	–	–	–
Danio rerio embryo [15], exposure time: 2 dpf	–	–	133	–	–	–	–	–	–	–	–	–
Danio rerio embryo [15], exposure time: 4 dpf	–	–	172	–	–	–	–	–	–	–	–	–
Danio rerio embryo [16], exposure time: 2 dpf	–	–	–	–	–	168	–	–	–	–	–	–
Danio rerio embryo [16], exposure time: 4 dpf	–	–	–	–	–	188	–	–	–	–	–	–
Danio rerio embryo [18], exposure time: 2 dpf	–	–	–	–	180	–	–	–	–	–	–	–
Danio rerio embryo [18], exposure time: 4 dpf	–	–	–	–	136	–	–	–	–	–	–	–
Danio rerio embryo [19], exposure time: 2 dpf	–	151	–	–	–	–	–	–	–	–	–	–
Danio rerio embryo [19], exposure time: 4 dpf	–	104	–	–	–	–	–	–	–	–	–	–
Danio rerio embryo [30], 43.5 µM	–	–	–	–	–	–	–	–	–	–	–	3.02
Danio rerio embryo [30], 65.2 µM	–	–	–	–	–	–	–	–	–	–	–	3.58
Danio rerio embryo [30], 97.8 µM	–	–	–	–	–	–	–	–	–	–	–	2.42
Danio rerio embryo [30], 146.7 µM	–	–	–	–	–	–	–	–	–	–	–	1.83
Danio rerio embryo [30], 220.1 µM	–	–	–	–	–	–	–	–	–	–	–	2.71
Danio rerio embryo [30], 330.1 µM	–	–	–	–	–	–	–	–	–	–	–	3.53
Danio rerio embryo [30], 440.1 µM	–	–	–	–	–	–	–	–	–	–	–	3.51

Details	EC10 Bladder size Decrease [µM]	EC10 Eye-jaw distance Decrease [µM]	EC10 LMR dark [µM]	EC10 Otolith-eye distance Decrease [µM]	EC10 Pericard size Increase [µM]	EC10 Yolk sac size Increase [µM]	EC20 Bladder size Decrease [µM]	EC20 Eye-jaw distance Decrease [µM]	EC20 LMR dark [µM]	EC20 Otolith-eye distance Decrease [µM]	EC20 Pericard size Increase [µM]	EC20 Yolk sac size Increase [µM]	EC50 Bladder size Decrease [µM]	EC50 Eye-jaw distance Decrease [µM]	EC50 LMR dark [µM]	EC50 Otolith-eye distance Decrease [µM]	EC50 Pericard size Increase [µM]	EC50 Yolk sac size Increase [µM]
Danio rerio embryo [2]	–	–	–	–	–	–	–	–	–	–	–	–	–	–	243	–	–	–
Danio rerio embryo [5]	–	–	–	–	–	–	–	–	–	–	–	–	108	–	–	–	–	–
Danio rerio embryo [6]	–	–	–	–	–	–	–	–	–	–	–	–	–	–	–	–	385	–
Danio rerio embryo [7]	–	–	–	–	–	–	–	–	–	–	–	–	–	–	–	–	–	173
Danio rerio embryo [8]	–	–	–	–	–	–	–	–	–	–	–	–	–	197	–	–	–	–
Danio rerio embryo [9]	–	–	–	–	–	–	–	–	–	–	–	–	–	–	–	248	–	–
Danio rerio embryo [10]	–	–	186	–	–	–	–	–	–	–	–	–	–	–	–	–	–	–
Danio rerio embryo [11]	–	–	–	–	–	–	–	–	206	–	–	–	–	–	–	–	–	–
Danio rerio embryo [20]	95.7	–	–	–	–	–	–	–	–	–	–	–	–	–	–	–	–	–
Danio rerio embryo [21]	–	–	–	–	–	–	99.9	–	–	–	–	–	–	–	–	–	–	–
Danio rerio embryo [22]	–	–	–	–	–	–	–	–	–	–	–	44.7	–	–	–	–	–	–
Danio rerio embryo [23]	–	–	–	–	–	–	–	–	–	–	193	–	–	–	–	–	–	–
Danio rerio embryo [24]	–	–	–	–	–	20.2	–	–	–	–	–	–	–	–	–	–	–	–
Danio rerio embryo [25]	–	–	–	–	129	–	–	–	–	–	–	–	–	–	–	–	–	–
Danio rerio embryo [26]	–	–	–	–	–	–	–	146	–	–	–	–	–	–	–	–	–	–
Danio rerio embryo [27]	–	122	–	–	–	–	–	–	–	–	–	–	–	–	–	–	–	–
Danio rerio embryo [28]	–	–	–	–	–	–	–	–	–	154	–	–	–	–	–	–	–	–
Danio rerio embryo [29]	–	–	–	116	–	–	–	–	–	–	–	–	–	–	–	–	–	–
